# Results as given in patent publication US9695155B2, “Herbicidal substituted pyrimidinyloxy benzene compounds” (E. I. DU PONT DE NEMOURS AND COMPANY, priority 2013, dated 2017).
# How the values were obtained:
# rice = experiment: Test B flooded paddy test; format: in vivo, Oryza sativa; details: Flood, 250 g ai/ha; 0 to 100 scale where 0 is no effect and 100 is complete control
# Summary of the method: (§1)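 Visual ratings on a 0 to 100 scale, where 100 means complete control, compared treated plants with controls after 13 to 15 days in a greenhouse. Treatment went into paddy water 3 cm deep over the soil, applied to plants at the 2-leaf stage.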
# Italian ryegrass [1] = experiment: Test A preemergence; format: in vivo, Lolium multiflorum; details: for Plant response rating, Ryegrass, Italian: 0 to 100 scale where 0 is no effect and 100 is complete control
# Summary of the method: (§2)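 Scoring: eye-based comparison with untreated controls, 0 for no effect through 100 for complete control, at about day 10. Treatments: directed soil spray preemergence; foliar spray postemergence on 2–10 cm plants at the one- to two-leaf stage. Medium: loam soil with sand.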
# ragweed [2] = experiment: Test A postemergence; format: in vivo, Ambrosia elatior; details: 0 to 100 scale, 0 no effect, 100 complete control
# Summary of the method: as §2
# barnyardgrass [3] = experiment: Test A postemergence; format: in vivo, Echinochloa crus-galli
# Summary of the method: as §2
# blackgrass = experiment: Test A postemergence; format: in vivo, Alopecurus myosuroides
# Summary of the method: as §2
# giant foxtail [4] = experiment: Test A preemergence; format: in vivo, Setaria faberii; details: for Plant response rating, Foxtail, Giant: 0 to 100 scale where 0 is no effect and 100 is complete control
# Summary of the method: as §2
# Italian ryegrass [5] = experiment: Test A postemergence; format: in vivo, Lolium multiflorum; details: 0 to 100 scale, 0 no effect, 100 complete control
# Summary of the method: as §2
# galium = experiment: Test A postemergence; format: in vivo, Galium aparine
# Summary of the method: as §2
# kochia [6] = experiment: Test A postemergence; format: in vivo, Kochia scoparia
# Summary of the method: as §2
# ragweed [7] = experiment: Test A preemergence; format: in vivo, Ambrosia elatior; details: for Plant response rating, Ragweed: 0 to 100 scale where 0 is no effect and 100 is complete control
# Summary of the method: as §2
# corn = experiment: Test A postemergence; format: in vivo, Zea mays
# Summary of the method: as §2
# barnyardgrass [8] = experiment: Test A preemergence; format: in vivo, Echinochloa crus-galli; details: for Plant response rating, Barnyardgrass: 0 to 100 scale where 0 is no effect and 100 is complete control
# Summary of the method: as §2
# pigweed [9] = experiment: Test A postemergence; format: in vivo, Amaranthus retroflexus; details: 0 to 100 scale, 0 no effect, 100 complete control
# Summary of the method: as §2
# barnyardgrass [10] = experiment: Test B flooded paddy test; format: in vivo, Echinochloa crus-galli; details: Flood, 250 g ai/ha; 0 to 100 scale where 0 is no effect and 100 is complete control
# Summary of the method: as §1
# sedge, umbrella = experiment: Test B flooded paddy test; format: in vivo, Cyperus difformis; details: Flood, 250 g ai/ha; 0 to 100 scale where 0 is no effect and 100 is complete control
# Summary of the method: as §1
# kochia [11] = experiment: Test A preemergence; format: in vivo, Kochia scoparia; details: for Plant response rating, Kochia: 0 to 100 scale where 0 is no effect and 100 is complete control
# Summary of the method: as §2
# pigweed [12] = experiment: Test A preemergence; format: in vivo, Amaranthus retroflexus; details: for Plant response rating, Pigweed: 0 to 100 scale where 0 is no effect and 100 is complete control
# Summary of the method: as §2
# giant foxtail [13] = experiment: Test A postemergence; format: in vivo, Setaria faberii
# Summary of the method: as §2
# Heteranthera limosa = experiment: Test B flooded paddy test; format: in vivo; details: Flood, 250 g ai/ha; 0 to 100 scale where 0 is no effect and 100 is complete control
# Summary of the method: as §1
# wheat = experiment: Test A postemergence; format: in vivo, Triticum aestivum; details: 0 to 100 scale, 0 no effect, 100 complete control
# Summary of the method: as §2
# [14] = 31 g ai/ha, visual, approximately 10 days
# [15] = 31 g ai/ha, 0 to 100 scale, 0 no effect, 100 complete control
# [16] = 125 g ai/ha, 0 to 100 scale, 0 no effect, 100 complete control
# [17] = 1000 g ai/ha, 0 to 100 scale, 0 no effect, 100 complete control, approx. 10 days
# [18] = 1000 g ai/ha, 0 to 100 scale, 0 no effect, 100 complete control
# [19] = 125 g ai/ha, 0 to 100 scale where 0 is no effect and 100 is complete control
smiles,measurement,setting,value
N#Cc1cnn(-c2c(CF)cccc2Oc2ncc(Cl)cn2)c1 [Compound 242],"Plant response rating, Rice",rice,0
same,"Plant response rating, Ryegrass, Italian",Italian ryegrass [1]; [14],0
same,"Ryegrass, Italian plant response rating (0 to 100 scale)",Italian ryegrass [1]; 125 g ai/ha,0
same,"Plant response rating, Ragweed",ragweed [2]; 31 g ai/ha,20
same,"Plant response rating, Ragweed",ragweed [2]; 125 g ai/ha,50
same,"Plant response rating, Barnyardgrass",barnyardgrass [3]; [15],0
same,"Plant response rating, Barnyardgrass",barnyardgrass [3]; [16],60
same,"Plant response rating, Blackgrass",blackgrass; [15],30
same,"Plant response rating, Blackgrass",blackgrass; [16],90
same,"Plant response rating, Foxtail, Giant",giant foxtail [4]; [14],100
same,"Foxtail, Giant plant response rating (0 to 100 scale)",giant foxtail [4]; 125 g ai/ha,100
same,"Plant response rating, Ryegrass, Italian",Italian ryegrass [5]; 31 g ai/ha,0
same,"Plant response rating, Ryegrass, Italian",Italian ryegrass [5]; 125 g ai/ha,30
same,"Plant response rating, Galium",galium; [15],10
same,"Plant response rating, Galium",galium; [16],30
same,"Plant response rating, Kochia",kochia [6]; [15],30
same,"Plant response rating, Kochia",kochia [6]; [16],80
same,"Plant response rating, Ragweed",ragweed [7]; [14],50
same,Ragweed plant response rating (0 to 100 scale),ragweed [7]; 125 g ai/ha,80
same,"Plant response rating, Corn",corn; [15],0
same,"Plant response rating, Corn",corn; [16],60
same,"Plant response rating, Barnyardgrass",barnyardgrass [8]; [14],20
same,"Barnyardgrass plant response rating (0 to 100 scale, 0 is no effect, 100 is complete control)",barnyardgrass [8]; 125 g ai/ha,70
same,"Plant response rating, Pigweed",pigweed [9]; 31 g ai/ha,30
same,"Plant response rating, Pigweed",pigweed [9]; 125 g ai/ha,80
same,"Plant response rating, Barnyardgrass",barnyardgrass [10],20
same,"Plant response rating, Sedge, Umbrella","sedge, umbrella",75
same,"Plant response rating, Kochia",kochia [11]; [14],30
same,Kochia plant response rating (0 to 100 scale),kochia [11]; 125 g ai/ha,100
same,"Plant response rating, Pigweed",pigweed [12]; [14],90
same,Pigweed plant response rating (0 to 100 scale),pigweed [12]; 125 g ai/ha,100
same,"Plant response rating, Foxtail, Giant",giant foxtail [13]; [15],0
same,"Plant response rating, Foxtail, Giant",giant foxtail [13]; [16],50
same,"Plant response rating, Ducksalad",Heteranthera limosa,70
same,"Plant response rating, Wheat",wheat; 31 g ai/ha,0
same,"Plant response rating, Wheat",wheat; 125 g ai/ha,60
COC(=O)c1cccc(Oc2ncc(Cl)cn2)c1-n1cc(C(F)(F)F)cn1 [Compound 248],"Plant response rating, Rice",rice,15
same,"Ryegrass, Italian plant response rating",Italian ryegrass [1]; [17],50
same,"Plant response rating, Ragweed",ragweed [2]; 1000 g ai/ha,50
same,"Plant response rating, Barnyardgrass",barnyardgrass [3]; [18],70
same,"Plant response rating, Blackgrass",blackgrass; [18],30
same,"Foxtail, Giant plant response rating",giant foxtail [4]; [17],100
same,"Plant response rating, Ryegrass, Italian",Italian ryegrass [5]; 1000 g ai/ha,50
same,"Plant response rating, Galium",galium; [18],100
same,"Plant response rating, Kochia",kochia [6]; [18],90
same,Ragweed plant response rating,ragweed [7]; [17],40
same,"Plant response rating, Corn",corn; [18],80
same,Barnyardgrass plant response rating,barnyardgrass [8]; [17],80
same,"Plant response rating, Pigweed",pigweed [9]; 1000 g ai/ha,100
same,"Plant response rating, Barnyardgrass",barnyardgrass [10],0
same,"Plant response rating, Sedge, Umbrella","sedge, umbrella",70
same,Kochia plant response rating,kochia [11]; [17],100
same,Pigweed plant response rating,pigweed [12]; [17],100
same,"Plant response rating, Foxtail, Giant",giant foxtail [13]; [18],100
same,"Plant response rating, Ducksalad",Heteranthera limosa,50
same,"Plant response rating, Wheat",wheat; 1000 g ai/ha,20
FCc1cccc(Oc2ncc(Cl)cn2)c1-n1cc(C(F)(F)F)cn1 [Compound 119],"Plant response rating, Rice",rice,25
same,"Ryegrass, Italian plant response rating (0 to 100 scale)",Italian ryegrass [1]; 31 g ai/ha,10
same,"Plant response rating, Ryegrass, Italian",Italian ryegrass [1]; 125 g ai/ha,80
same,"Plant response rating, Ragweed",ragweed [2]; 31 g ai/ha,30
same,"Plant response rating, Barnyardgrass",barnyardgrass [3]; [15],40
same,"Plant response rating, Barnyardgrass",barnyardgrass [3]; [19],70
same,"Plant response rating, Blackgrass",blackgrass; [15],40
same,"Plant response rating, Blackgrass",blackgrass; [19],70
same,"Foxtail, Giant plant response rating (0 to 100 scale)",giant foxtail [4]; 31 g ai/ha,90
same,"Plant response rating, Foxtail, Giant",giant foxtail [4]; 125 g ai/ha,100
same,"Plant response rating, Ryegrass, Italian",Italian ryegrass [5]; 31 g ai/ha,30
same,"Plant response rating, Galium",galium; [15],70
same,"Plant response rating, Galium",galium; [19],100
same,"Plant response rating, Kochia",kochia [6]; [15],70
same,"Plant response rating, Kochia",kochia [6]; [19],90
same,Ragweed plant response rating (0 to 100 scale),ragweed [7]; 31 g ai/ha,0
same,"Plant response rating, Ragweed",ragweed [7]; 125 g ai/ha,60
same,"Plant response rating, Corn",corn; [15],10
same,"Plant response rating, Corn",corn; [19],50
same,Barnyardgrass plant response rating (0 to 100 scale),barnyardgrass [8]; 31 g ai/ha,30
same,"Plant response rating, Barnyardgrass",barnyardgrass [8]; 125 g ai/ha,90
same,"Plant response rating, Pigweed",pigweed [9]; 31 g ai/ha,70
same,"Plant response rating, Barnyardgrass",barnyardgrass [10],40
same,"Plant response rating, Sedge, Umbrella","sedge, umbrella",95
same,Kochia plant response rating (0 to 100 scale),kochia [11]; 31 g ai/ha,50
same,"Plant response rating, Kochia",kochia [11]; 125 g ai/ha,100
same,Pigweed plant response rating (0 to 100 scale),pigweed [12]; 31 g ai/ha,100
same,"Plant response rating, Pigweed",pigweed [12]; 125 g ai/ha,100
same,"Plant response rating, Foxtail, Giant",giant foxtail [13]; [15],30
same,"Plant response rating, Foxtail, Giant",giant foxtail [13]; [19],80
same,"Plant response rating, Ducksalad",Heteranthera limosa,95
same,"Plant response rating, Wheat",wheat; 31 g ai/ha,10
